# Measured values taken from US20060121126A1, “Environmentally friendly pesticide and method of use” (priority 2004, published 2006).
# Test system: Culex pipiens and Aedes Egypti late 3rd instar larvae
# Assay: Mosquito larvae mortality in cups of tap water
# Assay type: in vivo
# Settings: 20 larvae in 150 mL tap water
# Description: A series of control experiments are conducted to study the effect of aqueous hydrogen peroxide and saponin extract on mosquito larvae, individually, and in combination. In a series of 30 experiments, 20 Culex pipiens and Aedes Egypti in the late 3rd instar larvae are placed in a cup containing 150 mL of tap water. In separate experiments, the larvae are exposed to varying concentrations of hydrogen peroxide saponin extract. The mortality is recorded over a 5-day period.
smiles,measurement,value
OO [hydrogen peroxide],concentration needed to achieve 50% larvae mortality in 24 hrs,> 100 ppm
